Tests used:
Measles morbillivirus [1] = test: Antiviral activity against Measles virus Alaska in Vero cells assessed as inhibition of cytopathic effect; assay type: functional, organism-based
[2] = Cytotoxicity against african green monkey Vero cells by MTT assay; assay type: cell-based; conditions: chlorocebus sabaeus
Measles morbillivirus [3] = test: Antiviral activity against Measles virus Alaska in Vero cells assessed as reduction of viral titer; assay type: functional, organism-based
[4] = (§1) Selectivity index, ratio of CC50 for african green monkey Vero cells to EC50 for Measles virus Alaska; assay type: toxicity, cell-based; conditions: read-out: Ratio CC50/EC50
[5] = as §1; assay type: toxicity, cell-based; conditions: read-out: Ratio CC50/EC50; remark: listed apart in the source
[6] = Selectivity index, ratio of CC50 for Vero cells to EC50 for Measles virus Leningrad 16; assay type: toxicity, cell-based; conditions: monkey, read-out: Ratio CC50/EC50
[7] = Cytotoxicity against african green monkey Vero cells by trypan blue exclusion assay; assay type: cell-based; conditions: chlorocebus sabaeus
Measles morbillivirus [8] = test: Antiviral activity against Measles virus Edmonston; assay type: functional, organism-based

| Structure (SMILES) | EC50 (Measles morbillivirus [1]) [µM] | CC50 [2] [µM] | EC50 (Measles morbillivirus [3]) [µM] | other results |
| --- | --- | --- | --- | --- |
| Cn1nc(C(F)(F)F)cc1C(=O)Nc1ccc(S(=O)(=O)N2CCC(N)CC2)cc1 | > 75 | > 300 |  |  |
| Cn1nc(C(F)(F)F)cc1C(=O)Nc1ccc(S(=O)(=O)N2CCCCC2)cc1 | < 2.3 | > 300 | 0.014 | selectivity ratio [4]: > 130; selectivity ratio [5]: 14200 |
| NC(=O)c1ncn([C@@H]2O[C@H](CO)[C@@H](O)[C@H]2O)n1 [RIBAVIRIN] |  |  |  | selectivity ratio [6]: 14.4 |
| Cn1nc(C(F)(F)F)cc1C(=O)Nc1ccc(S(=O)(=O)N2CCCCCCC2)cc1 | < 2.3 | 16 | 0.045 |  |
| Cn1nc(C(F)(F)F)cc1C(=O)Nc1ccc(S(=O)(=O)N2CCN(C(=O)OC(C)(C)C)CC2)cc1 | > 75 | > 300 |  |  |
| CCN(CC)S(=O)(=O)c1ccc(NC(=O)c2cc(C(F)(F)F)nn2C)cc1 | < 2.3 | > 300 | 0.019 | CC50 [7]: 280 µM |
| Cn1nc(C(F)(F)F)cc1C(=O)Nc1ccc(S(=O)(=O)N2CCNCC2)cc1 | 28 |  |  |  |
| Cn1nc(C(F)(F)F)cc1C(=O)Nc1ccc(S(=O)(=O)N2CCN(CCOCCO)CC2)cc1 | > 75 | > 300 |  |  |
| Cn1nc(C(F)(F)F)cc1C(=O)Nc1ccc(S(=O)(=O)NC2CCCCC2)cc1 | > 15 | 15 |  |  |
| CCC1CCCCN1S(=O)(=O)c1ccc(NC(=O)c2cc(C(F)(F)F)nn2C)cc1 (configuration not stated) | < 2.3 | > 300 | 0.087 | CC50 [7]: 14 µM |
| NC(=O)c1ccc([N+](=O)[O-])cc1NC(=O)Cc1ccccc1 |  |  |  | EC50 (Measles morbillivirus [8]): 0.6 µM |
| C=CCN(CC=C)S(=O)(=O)c1ccc(NC(=O)c2cc(C(F)(F)F)nn2C)cc1 | 3.3 | 34 |  |  |
| Cn1nc(C(F)(F)F)cc1C(=O)Nc1ccc(S(=O)(=O)N2CCCCC2CO)cc1 (configuration not stated) | < 2.3 |  | 0.85 |  |
| Cn1nc(C(F)(F)F)cc1C(=O)Nc1ccc(S(=O)(=O)N2CCCCCC2)cc1 | < 2.3 | > 300 | 0.005 | CC50 [7]: 425 µM |
| CC1CCCCN1S(=O)(=O)c1ccc(NC(=O)c2cc(C(F)(F)F)nn2C(C)C)cc1 (configuration not stated) | > 75 | > 300 |  |  |
| Cn1nc(C(F)(F)F)cc1C(=O)Nc1ccc(S(=O)(=O)N2CCC(C(F)(F)F)CC2)cc1 | 2.3 | 159 | 0.02 |  |
| COC(=O)C1CCCCN1S(=O)(=O)c1ccc(NC(=O)c2cc(C(F)(F)F)nn2C)cc1 (configuration not stated) | 10 | 136 |  |  |
| CC1CCCCN1S(=O)(=O)c1ccccc1NC(=O)c1cc(C(F)(F)F)nn1C (configuration not stated) | > 75 | > 300 |  |  |
| CC1CCCCN1S(=O)(=O)c1cccc(NC(=O)c2cc(C(F)(F)F)nn2C)c1 (configuration not stated) | > 75 | 84 |  |  |
| CC(C)N(C(C)C)S(=O)(=O)c1ccc(NC(=O)c2cc(C(F)(F)F)nn2C)cc1 | 3.5 | > 300 | 0.53 |  |
| CC1CCCCN1S(=O)(=O)c1ccc(NC(=O)c2cc(C(F)(F)F)nn2C)cc1 (configuration not stated) | < 2.3 | > 300 | 0.029 | CC50 [7]: 54 µM |
| Cn1nc(C(F)(F)F)cc1C(=O)Nc1ccc(S(=O)(=O)OC2CCCCC2)cc1 | > 75 | > 300 |  |  |

| Structure (SMILES) | EC50 (Measles morbillivirus [1]) [µM] | CC50 [2] [µM] | EC50 (Measles morbillivirus [3]) [µM] | other results |
| --- | --- | --- | --- | --- |
| Cn1nc(C(F)(F)F)cc1C(=O)Nc1ccc(S(=O)(=O)N2CCCCC2C(=O)OC(C)(C)C)cc1 (configuration not stated) | > 38 | 38 |  |  |
| Cn1nc(C(F)(F)F)cc1C(=O)Nc1ccc(S(=O)(=O)N2CCOCC2)cc1 | 43 | > 300 |  |  |
| Cn1nc(C(F)(F)F)c(Br)c1C(=O)Nc1ccc(S(=O)(=O)N2CCCC2)cc1 | > 75 | 95 |  | selectivity ratio [4]: < 1.3 |
| COC(=O)c1ccccc1-n1nc(C(F)(F)F)cc1C(=O)Nc1ccc(S(=O)(=O)N2CCCC2)cc1 | > 75 |  | > 75 | CC50 [7]: > 300 µM |
| CN(C)S(=O)(=O)c1ccc(NC(=O)c2cc(C(F)(F)F)nn2C)cc1 | 6.3 | > 300 |  |  |
| COC=C1CCN(S(=O)(=O)c2ccc(NC(=O)c3cc(C(F)(F)F)nn3C)cc2)CC1 | > 75 | 92 |  |  |
| Cn1nc(C(F)(F)F)cc1C(=O)Nc1ccc(S(=O)(=O)N2CCC(NC(=O)OC(C)(C)C)CC2)cc1 | 14.1 | > 300 |  |  |
| CC(C)CN(CC(C)C)S(=O)(=O)c1ccc(NC(=O)c2cc(C(F)(F)F)nn2C)cc1 | > 13.8 | 13.8 |  |  |
| Cn1nc(C(F)(F)F)cc1C(=O)Nc1ccc(S(=O)(=O)n2ccc3ccccc32)cc1 | > 13 |  |  |  |
| Cn1nc(C(F)(F)F)cc1C(=O)Nc1ccc(S(=O)(=O)N2CCC[C@H]2C(=O)O)cc1 | 23 | > 300 |  |  |
| CN(C(=O)c1cc(C(F)(F)F)nn1C)c1ccc(S(=O)(=O)N2CCCCC2)cc1 | > 75 | 286 |  |  |
| Nc1ccc(O)c(NC(=O)Cc2ccccc2)c1 |  |  |  | EC50 (Measles morbillivirus [8]): 0.26 µM |
| CCCN(CCC)S(=O)(=O)c1ccc(NC(=O)c2cc(C(F)(F)F)nn2C)cc1 | < 2.3 | > 300 | 0.19 |  |
| O=C(O)c1ccccc1-n1nc(C(F)(F)F)cc1C(=O)Nc1ccc(S(=O)(=O)N2CCCC2)cc1 | > 75 |  | > 75 | CC50 [7]: > 300 µM |
| CC1CCCC(C)N1S(=O)(=O)c1ccc(NC(=O)c2cc(C(F)(F)F)nn2C)cc1 (configuration not stated) | < 2.3 | > 300 | 0.014 | CC50 [7]: 328 µM |
| Cn1nc(C(F)(F)F)cc1C(=O)Nc1ccc(S(=O)(=O)N2CCC(O)CC2)cc1 | 6.8 | 274 | 0.57 |  |
| CC1CCN(S(=O)(=O)c2ccc(NC(=O)c3cc(C(F)(F)F)nn3C)cc2)CC1 | < 2.3 | > 300 | 0.035 | CC50 [7]: 53 µM |
| Cn1nc(C(F)(F)F)cc1C(=O)Nc1ccc(S(=O)(=O)N2CCCC(C(=O)O)C2)cc1 (configuration not stated) | > 75 | > 300 |  |  |
| CC1CCCCN1S(=O)(=O)c1ccc(NC(=O)c2cc(C(F)(F)F)nn2Cc2ccccc2)cc1 (configuration not stated) | > 19 |  | > 19 | CC50 [7]: 19 µM |
| Cn1nc(C(F)(F)F)cc1C(=O)Nc1ccc(S(=O)(=O)N2CCCCC2C(=O)O)cc1 (configuration not stated) | > 75 | > 300 |  |  |
| Cn1nc(C(F)(F)F)cc1C(=O)Nc1ccc(S(=O)(=O)N2CCCC2)cc1 |  |  |  | EC50 (Measles morbillivirus [8]): 0.25 µM |
| CCn1nc(C(F)(F)F)cc1C(=O)Nc1ccc(S(=O)(=O)N2CCCCC2C)cc1 (configuration not stated) | < 2.3 | 30 | 0.055 |  |
